A short description of assay [1]: HEK-293T viability loss after treatment – luminescence, T-cell screen hits, cytotoxicity control for TCR NF-kB inhibitor project, dose response (AID 489026).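 Note: cells exposed to compound about 14 hours before the viability readout.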 It is filed as functional, cell-based.
The nature of assay [2]: alpha-synuclein stem-loop luciferase translation blockers – H4 neuroglioma cells, luminescence, confirmation (AID 1988). It is filed as functional, cell-based.
For assay [3], the system named is BJ. Nature of the assay: BJ-TERT fibroblast viability loss – cell-based, RAS-independent, luminescence, dose response (AID 1933). Format: functional. The note with it: Homo sapiens.
For assay [4], the target named is Paired box protein Pax-8 (Homo sapiens, UniProt Q06710). Nature of the assay: PAX8 transcriptional activity inhibition in RMG-I – RMG-I cells, luciferase, cherry-pick, dose response (AID 687027).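 Note: luciferase reporter driven by Pax8 target thyroperoxidase promoter measured by SteadyGlo luminescence.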 Format: functional, cell-based.
Assay [5] is described as follows: DRD fibroblast viability loss – cell-based, non-viral oncogenic, luminescence, dose response (AID 1934). Format: functional. The note with it: Homo sapiens.
The nature of assay [6]: luciferase reporter signal suppression in cells – H4 neuroglioma cells, luminescence, dose response (AID 1990). Format: functional, cell-based.
Assay [7] relates to BJ. Nature of the assay: BJ-TERT-LT-ST fibroblast viability loss – cell-based, RAS-independent, luminescence, dose response (AID 1935).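 Note: BJ fibroblasts immortalized with TERT plus LT and ST oncogenes.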 It is filed as functional. Particulars: Homo sapiens.
Assay [8] concerns BJ. Nature of the assay: cells. The note with it: Homo sapiens. Format: functional, cell-based.
The nature of assay [9]: Luminescence Cell-Based Dose Response HTS to Identify Inhibitors of 5'UTR Stem-Loop Driven Prion Protein mRNA Translation in H4 Neuroglioblastoma Cells. [Related pubchem assays: 1827 (Project Summary), 1813 (Primary HTS)]. It is filed as functional.
In assay [10] the target is T1, Fatty acid synthase (Homo sapiens, UniProt P49327). Nature of the assay: inhibition of human FAS-TE enzyme activity – biochemical, endpoint fluorescence intensity, uHTS hits, dose response (AID 624327).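 Note: fluorescence from hydrolysis of an O-methyl fluorescein acyl ester substrate by the enzyme.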 Format: functional.
For assay [11], the target named is T1, Fatty acid synthase. Nature of the assay: inhibition of human FAS-TE enzyme activity – biochemical, kinetic fluorescence intensity, dose response (AID 624326).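 Note: rate of fluorescence rise from hydrolysis of a fluorogenic O-methyl fluorescein ester substrate.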 It is filed as functional.
The nature of assay [12]: Luminescence Cell-Based Dose Confirmation HTS to Identify Inhibitors of Platelet Dense Granule Release. [Related pubchem assays: 1663 (Primary HTS), 1678 (Summary of Project)]. Format: functional.
Assay [13] addresses Luciferin 4-monooxygenase (Photinus pyralis, UniProt P08659). Nature of the assay: inhibition of purified Photinus pyralis luciferase – biochemical, luminescence, dose response (AID 1891).
In assay [14] the target is T2, Heat shock factor protein 1 (Mus musculus, UniProt P38532).
T2 sequence (P38532 whole entry): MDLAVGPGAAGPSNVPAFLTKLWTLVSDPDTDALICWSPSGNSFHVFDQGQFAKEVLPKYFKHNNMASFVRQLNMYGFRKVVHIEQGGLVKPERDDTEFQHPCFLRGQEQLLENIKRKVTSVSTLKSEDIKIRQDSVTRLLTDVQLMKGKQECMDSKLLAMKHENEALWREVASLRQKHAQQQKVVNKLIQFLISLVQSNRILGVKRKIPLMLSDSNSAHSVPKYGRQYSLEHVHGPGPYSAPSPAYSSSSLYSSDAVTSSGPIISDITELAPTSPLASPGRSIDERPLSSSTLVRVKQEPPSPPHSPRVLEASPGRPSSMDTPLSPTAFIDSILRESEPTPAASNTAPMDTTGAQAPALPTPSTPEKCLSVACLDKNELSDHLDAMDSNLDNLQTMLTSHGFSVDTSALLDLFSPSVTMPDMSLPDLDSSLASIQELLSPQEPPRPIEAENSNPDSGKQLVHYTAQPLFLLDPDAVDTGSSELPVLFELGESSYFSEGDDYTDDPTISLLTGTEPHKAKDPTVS
Nature of the assay: decrease of HSF1-responsive luciferase luminescence – cell-based, NIH3T3, dose retest, confirmation (AID 2382).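 Note: NIH3T3 fibroblasts with HSF1-driven luciferase reporter stressed by proteasome inhibitor MG132; luminescence from HSF1-driven luciferase expression after 8 hours of MG132 stress.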 Format: functional.

Assay [15] has as its target T3, RNA-binding protein pos-1 (Caenorhabditis elegans, UniProt G5EF15).
T3 sequence (G5EF15 whole entry): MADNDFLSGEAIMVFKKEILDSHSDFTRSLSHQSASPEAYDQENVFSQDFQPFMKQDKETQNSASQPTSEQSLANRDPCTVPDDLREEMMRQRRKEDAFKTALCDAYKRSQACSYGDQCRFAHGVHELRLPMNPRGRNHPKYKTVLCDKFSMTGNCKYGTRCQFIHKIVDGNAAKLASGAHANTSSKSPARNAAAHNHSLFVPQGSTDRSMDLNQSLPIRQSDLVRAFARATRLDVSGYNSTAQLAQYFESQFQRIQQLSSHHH
Nature of the assay: disruptors of C. elegans POS-1 RNA interaction – biochemical, fluorescence polarization, dose response (AID 1964).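 Note: purified POS-1 fused to maltose binding protein made in E. coli; potency of compounds blocking POS-1 binding to fluorescent RNA.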

Assay [16] has as its target T4, Zinc finger protein mex-5 (Caenorhabditis elegans, UniProt Q9XUB2).
T4 sequence (Q9XUB2 whole entry): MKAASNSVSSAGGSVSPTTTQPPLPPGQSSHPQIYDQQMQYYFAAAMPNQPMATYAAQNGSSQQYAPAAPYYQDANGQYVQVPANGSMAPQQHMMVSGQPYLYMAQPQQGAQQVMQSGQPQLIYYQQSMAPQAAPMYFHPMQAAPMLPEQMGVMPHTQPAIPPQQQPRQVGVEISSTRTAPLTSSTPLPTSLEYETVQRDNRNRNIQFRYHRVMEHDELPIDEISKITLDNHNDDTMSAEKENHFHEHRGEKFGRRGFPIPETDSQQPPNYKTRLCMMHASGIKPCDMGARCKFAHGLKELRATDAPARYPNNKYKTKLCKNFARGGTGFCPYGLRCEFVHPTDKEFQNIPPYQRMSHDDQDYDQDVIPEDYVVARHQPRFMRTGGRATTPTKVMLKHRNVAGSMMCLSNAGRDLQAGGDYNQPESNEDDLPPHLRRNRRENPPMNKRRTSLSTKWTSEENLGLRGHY
Nature of the assay: potency of MEX-5 RNA-binding blockers – biochemical, C. elegans, fluorescence polarization, dose response (AID 1960).

A short description of assay [17]: microbe, parasite or virus in culture. Format: functional. The note with it: Mycobacterium tuberculosis.
The subject of assay [18] is INS1. Nature of the assay: INS-1E survival protection against cytokine death – cell-based, luminescence, retest, dose response (AID 449756).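 Note: cell death triggered by IL-1 beta plus TNF-alpha plus IFN-gamma mixture; protective hits raise ATP signal compared with cytokine alone wells.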 It is filed as functional. Particulars: Rattus norvegicus.
The nature of assay [19]: cells. It is filed as functional, cell-based.
Assay [20] is described as follows: cells. Format: functional, cell-based. The source holds these as a separate data set.

Activity calls are given as the source filed them. Cut-off read from the data, not from the text of the source, for most assays here: actives have a measured EC50 and inactives only a lower limit. Bounds are passed on as bounds.

T1 sequence (P49327 whole entry): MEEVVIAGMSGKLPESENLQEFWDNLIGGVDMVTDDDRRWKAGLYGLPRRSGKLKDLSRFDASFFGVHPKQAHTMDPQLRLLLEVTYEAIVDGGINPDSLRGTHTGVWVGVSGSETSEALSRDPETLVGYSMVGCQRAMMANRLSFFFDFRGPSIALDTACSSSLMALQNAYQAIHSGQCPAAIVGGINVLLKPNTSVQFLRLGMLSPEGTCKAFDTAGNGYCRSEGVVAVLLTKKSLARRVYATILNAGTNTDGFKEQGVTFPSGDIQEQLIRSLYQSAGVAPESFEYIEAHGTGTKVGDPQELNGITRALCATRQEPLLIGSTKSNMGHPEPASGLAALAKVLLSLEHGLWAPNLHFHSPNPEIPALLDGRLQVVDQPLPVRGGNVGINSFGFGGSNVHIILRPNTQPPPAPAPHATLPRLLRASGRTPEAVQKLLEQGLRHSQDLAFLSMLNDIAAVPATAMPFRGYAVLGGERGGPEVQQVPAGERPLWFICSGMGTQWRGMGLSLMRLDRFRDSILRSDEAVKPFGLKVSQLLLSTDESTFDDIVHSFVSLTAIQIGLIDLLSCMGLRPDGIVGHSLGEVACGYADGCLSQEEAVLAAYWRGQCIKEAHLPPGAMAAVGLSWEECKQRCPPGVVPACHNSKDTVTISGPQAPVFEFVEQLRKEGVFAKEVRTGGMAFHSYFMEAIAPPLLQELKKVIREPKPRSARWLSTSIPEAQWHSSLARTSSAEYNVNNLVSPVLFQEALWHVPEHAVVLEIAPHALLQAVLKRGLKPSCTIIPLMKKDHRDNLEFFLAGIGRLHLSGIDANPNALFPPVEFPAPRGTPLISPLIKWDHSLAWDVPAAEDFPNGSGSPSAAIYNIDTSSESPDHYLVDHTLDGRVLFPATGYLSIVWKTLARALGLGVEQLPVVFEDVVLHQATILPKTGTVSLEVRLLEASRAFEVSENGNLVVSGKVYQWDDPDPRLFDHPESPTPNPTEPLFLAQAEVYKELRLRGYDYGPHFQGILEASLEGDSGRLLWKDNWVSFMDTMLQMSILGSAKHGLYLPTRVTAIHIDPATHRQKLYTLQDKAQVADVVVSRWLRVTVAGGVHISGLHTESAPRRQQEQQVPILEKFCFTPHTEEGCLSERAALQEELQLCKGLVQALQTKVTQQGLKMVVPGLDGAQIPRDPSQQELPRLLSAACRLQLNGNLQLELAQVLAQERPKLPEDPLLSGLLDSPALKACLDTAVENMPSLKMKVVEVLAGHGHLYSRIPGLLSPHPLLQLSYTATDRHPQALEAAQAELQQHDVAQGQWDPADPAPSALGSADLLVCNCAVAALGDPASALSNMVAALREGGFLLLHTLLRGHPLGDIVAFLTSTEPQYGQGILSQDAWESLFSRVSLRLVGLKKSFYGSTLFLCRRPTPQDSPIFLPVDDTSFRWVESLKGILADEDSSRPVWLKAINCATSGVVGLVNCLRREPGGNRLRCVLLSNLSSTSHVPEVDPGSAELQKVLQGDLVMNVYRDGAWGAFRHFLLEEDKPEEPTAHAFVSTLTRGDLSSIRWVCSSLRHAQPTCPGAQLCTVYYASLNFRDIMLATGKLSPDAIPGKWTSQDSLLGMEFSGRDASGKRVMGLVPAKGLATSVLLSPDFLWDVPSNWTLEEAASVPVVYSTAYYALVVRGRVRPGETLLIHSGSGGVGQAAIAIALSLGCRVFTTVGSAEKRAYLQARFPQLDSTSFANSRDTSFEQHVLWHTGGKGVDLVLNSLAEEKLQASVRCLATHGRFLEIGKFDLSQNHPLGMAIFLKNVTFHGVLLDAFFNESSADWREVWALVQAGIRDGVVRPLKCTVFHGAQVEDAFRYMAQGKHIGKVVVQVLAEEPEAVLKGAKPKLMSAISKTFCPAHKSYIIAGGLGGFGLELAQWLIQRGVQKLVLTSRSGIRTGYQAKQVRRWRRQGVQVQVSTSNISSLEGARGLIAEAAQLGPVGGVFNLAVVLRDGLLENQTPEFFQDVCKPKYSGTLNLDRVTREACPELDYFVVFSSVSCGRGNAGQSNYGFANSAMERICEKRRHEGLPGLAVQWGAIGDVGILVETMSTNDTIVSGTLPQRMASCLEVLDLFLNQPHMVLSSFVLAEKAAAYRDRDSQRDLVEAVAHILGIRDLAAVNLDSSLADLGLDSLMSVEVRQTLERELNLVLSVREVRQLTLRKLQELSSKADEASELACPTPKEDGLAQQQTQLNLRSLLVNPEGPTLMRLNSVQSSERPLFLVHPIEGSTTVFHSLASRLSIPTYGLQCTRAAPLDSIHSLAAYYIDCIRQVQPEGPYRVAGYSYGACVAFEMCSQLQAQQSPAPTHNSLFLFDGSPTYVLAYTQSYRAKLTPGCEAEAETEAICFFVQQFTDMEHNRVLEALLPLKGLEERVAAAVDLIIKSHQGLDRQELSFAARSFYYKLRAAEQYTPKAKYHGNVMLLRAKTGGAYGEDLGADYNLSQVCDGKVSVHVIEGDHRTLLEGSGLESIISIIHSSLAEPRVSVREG
Chain of Luciferin 4-monooxygenase (P08659 whole entry): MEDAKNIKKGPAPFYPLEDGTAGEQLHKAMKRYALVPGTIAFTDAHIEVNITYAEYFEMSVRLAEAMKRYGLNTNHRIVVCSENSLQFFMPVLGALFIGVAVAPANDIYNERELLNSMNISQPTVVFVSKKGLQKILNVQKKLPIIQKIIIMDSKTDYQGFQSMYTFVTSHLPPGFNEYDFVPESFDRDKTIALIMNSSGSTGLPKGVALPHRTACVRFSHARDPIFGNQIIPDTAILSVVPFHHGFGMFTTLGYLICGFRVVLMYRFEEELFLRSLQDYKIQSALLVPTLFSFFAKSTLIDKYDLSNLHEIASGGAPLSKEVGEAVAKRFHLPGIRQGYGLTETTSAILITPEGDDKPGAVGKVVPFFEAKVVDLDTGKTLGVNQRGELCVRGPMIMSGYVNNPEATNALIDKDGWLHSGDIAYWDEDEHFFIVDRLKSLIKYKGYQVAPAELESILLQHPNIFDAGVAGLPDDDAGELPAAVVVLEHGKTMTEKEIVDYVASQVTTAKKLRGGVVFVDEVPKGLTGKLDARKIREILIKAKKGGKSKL
Chain of Paired box protein Pax-8 (Q06710 whole entry): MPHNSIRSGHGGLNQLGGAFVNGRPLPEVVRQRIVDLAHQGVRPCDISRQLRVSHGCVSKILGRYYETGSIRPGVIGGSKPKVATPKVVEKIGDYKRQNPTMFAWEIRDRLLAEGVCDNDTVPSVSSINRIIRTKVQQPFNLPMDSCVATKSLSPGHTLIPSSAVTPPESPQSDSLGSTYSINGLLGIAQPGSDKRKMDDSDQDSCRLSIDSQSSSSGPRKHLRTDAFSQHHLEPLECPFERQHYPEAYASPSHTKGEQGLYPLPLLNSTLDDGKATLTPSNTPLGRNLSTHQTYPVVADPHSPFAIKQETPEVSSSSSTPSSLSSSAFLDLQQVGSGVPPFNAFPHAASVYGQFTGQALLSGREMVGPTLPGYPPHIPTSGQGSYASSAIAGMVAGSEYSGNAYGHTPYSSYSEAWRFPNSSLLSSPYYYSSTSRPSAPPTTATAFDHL

For `Cc1ccc(C(=O)c2cc([N+](=O)[O-])ccc2N2CCCCC2)cc1`, in [1], the IC50 was > 80 µM (inactive). Also, the EC50 is < 0.1 µM (active) in [2]; 0.493 µM (inconclusive) in assay [3]; 1.21 µM (active) in assay [5]; 0.129 µM (active) in [6]; 0.576 µM (inconclusive) in assay [7]; 82.5 µM (inconclusive) in [8]. The concentration for a half-maximal effect (EC50) in [9] was 0.303 µM (active). Further, the AC50 in assay [4] was 3.39 µM (active).

On to `CCOc1ccc(C(=O)COC(=O)c2cc([N+](=O)[O-])ccc2N2CCOCC2)cc1`, for which the half-maximal inhibitory concentration (IC50) was 6.76 µM (active) in [10] and 5.81 µM (active) in [11].

Consider `C[C@H](CO)N1C[C@H](C)[C@@H](CN(C)Cc2ccc(Cl)c(Cl)c2)Oc2c(NS(=O)(=O)c3ccc(F)cc3)cccc2C1=O`, for which the 50% inhibitory concentration (IC50) in assay [10] is 11.9 µM (active); in [11], 13.2 µM (active).

As for `O=C(CC1C[C@H](C(=O)N2CCOCC2)[C@@]2(CCC3CCCC3)c3[nH]c4ccccc4c3CCN2C1=O)NCCc1ccccn1` (some centres not stated), the half-inhibitory concentration (IC50) was 1.37 µM (active) in assay [10] and 1.09 µM (active) in [11].

As to `C/C(=N/N=C/c1ccc(N(C)C)cc1)c1ccccc1`, the EC50 in [12] is 1.61 µM (active); in [3] it was 26.5 µM (active); in assay [5], 17.1 µM (active); in assay [7], > 150 µM (not active); in [13] it was 0.875 µM (active); in [8], 13.5 µM (active).

As to `Cc1cc(=O)n2c(n1)/C(=N\Nc1ccccc1)C(=O)N2`, the concentration giving a half-maximal response (EC50) in assay [14] was > 195 µM (not active); in [15] it was 0.374 µM (inconclusive).

As for `Cc1ccc(-c2nnc(Nc3ccc(CC(N)=O)cc3)c3ccccc23)cc1S(N)(=O)=O`, the EC50 in assay [15] and in assay [16] was > 300 µM (not active) in each case.

Consider `COC(=O)c1c(O)[n+]([O-])c2ccc(OC)cc2[n+]1[O-]`, for which the values for the 50% effective concentration (EC50) in assay [15] and in assay [16] were 14.1 µM (active) and > 300 µM (inconclusive), respectively.

`CC(C)(C)c1ccc(/C=N/NC(=S)NC2CCCCC2)cc1`: the IC50 in [10] is 12.7 µM (active); in assay [11], 15.4 µM (active).

In the case of `Cc1ccc(NC(=O)c2cc([N+](=O)[O-])ccc2N2CCCC2)cc1`, the half-maximal inhibitory concentration (IC50) was 8.09 µM (active) in [10] and 5.53 µM (active) in assay [11].

`O=C1C([N-]S(=O)(=O)c2cccs2)=C([n+]2ccc(CCCc3ccccc3)cc2)C(=O)c2ccccc21`: the concentration giving a half-maximal response (EC50) was 119 µM (active) in [15]; 8.36 µM (active) in assay [2]; 10.5 µM (active) in assay [6]; 97 µM (active) in [16]; > 120 µM (not active) in [9]. Further, the CC50 in [17] is 9.69 µM (active). Moreover, the AC50 in assay [18] was 8.75 µM (active).

As for `O=C(N/N=C/c1ccc(Br)o1)/C(=C/c1ccc([N+](=O)[O-])cc1)NC(=O)c1ccccc1`, the IC50 in [10] is 9.86 µM (active); in [11], 10.8 µM (active).

On to `CC1=N/C(=C/c2ccco2)C(=O)O1`, for which the half-maximal effective concentration (EC50) in assay [15] was 71.1 µM (active); in assay [16], 33.1 µM (active).

In the case of `CCCCC1=CC2=CC(=O)C(C)(O)C(=O)C2=CO1` (configuration not stated), the concentration for a half-maximal effect (EC50) in assay [15] is 55.3 µM (active); in [16], 23.5 µM (active).

For `Cn1c(N/N=C/c2cc3ccccc3nc2Cl)nc2ccccc21`, the EC50 is 6.52 µM (active) in [12]; 6.15 µM (inconclusive) in assay [3]; 25.7 µM (active) in [5]; > 350 µM (not active) in [19]; 7.59 µM (active) in assay [20]; > 150 µM (not active) in assay [7]. The values for the EC50 in [13] and in assay [8] were 0.687 µM (active) and 2.58 µM (active), respectively.
